Read-outs that look alike come from different tables or passages of the source.
What was measured:
[1] = Acceptable Daily Intake according to European regulations and corresponding blood concentration
Description: It is extremely hazardous to compare the IC50 values obtained in vitro under laboratory conditions with the concentrations of SDHI that might result from the application of these pesticides on crops. One can however reliably determine the concentration of SDHI at the outlet of the diffusion nozzles. In the case of bixafen, it is about 0.6 to 1.8 mM according to the recommendations distributed to farmers, resulting in a cloud of nebulization, corresponding to 75–125 g/hectare of bixafen. The final exposition depends on numerous factors hard to control, including the spreading conditions, the nature of the ground, its vegetation cover, etc. From a regulatory point of view, the ADI for example for boscalid and bixafen amounts to 0.04 and 0.02 mg / kg / day, respectively (see legend S2 Fig). For an average adult (60 kg / blood volume 5 l), this correspond to a blood concentration of approximately 1.40 and 0.58 μM, respectively.
Supplementary file pone.0224132.s003.pdf: S2 Fig SDHI molecular structure. The yellow and blue parts for each molecule are reminiscent of the predecessor carboxin structure (top). […] ADI; Acceptable Daily Intake according to European regulations. (PDF) Click here for additional data file.

[2] = target: T1, glycerol-3-phosphate cytochrome c reductase (G3PDH+CIII) (Botrytis cinerea, UniProt Q18ND9); test: GCCR activity, Botrytis cinerea mitochondria; type: biochemical
T1 sequence (Q18ND9 1-391): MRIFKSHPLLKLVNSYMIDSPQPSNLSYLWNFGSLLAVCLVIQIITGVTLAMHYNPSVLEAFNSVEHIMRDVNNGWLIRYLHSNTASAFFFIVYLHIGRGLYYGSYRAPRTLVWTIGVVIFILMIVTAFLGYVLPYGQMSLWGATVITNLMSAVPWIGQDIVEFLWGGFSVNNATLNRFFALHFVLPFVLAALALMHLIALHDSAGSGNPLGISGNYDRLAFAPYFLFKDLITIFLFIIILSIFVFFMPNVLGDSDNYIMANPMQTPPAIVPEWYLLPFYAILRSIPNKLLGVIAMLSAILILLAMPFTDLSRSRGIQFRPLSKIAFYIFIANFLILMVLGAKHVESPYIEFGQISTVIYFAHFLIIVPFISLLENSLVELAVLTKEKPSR
Description: The mixed population of B. cinerea fungi used in this study was kindly provided by Dr. Joelle Dupont (Museum National d’Histoire Naturelle, Paris, France). Conidia from Botrytis cinerea were obtained from 15–30 d cultures grown on malt medium agar plates. Mycelial colonies were prepared by seeding conidia from 10 colonies in liquid medium (10 g of glucose, 2 g of KH2PO4, 0.5 g of MgSO47H2O, 1 g of (NH4)2SO4, 2 g of yeast extract and deionized water up to 1 l, pH 6.2). Incubation was performed at 23°C until hyphae totally covered the surface of the bottle. The hyphae (9-cm-diameter disks) were harvested, washed twice with refrigerated distilled water and finally with mitochondria extraction medium containing 20 mM Tris (pH 7.2), 0.25 M sucrose, 40 mM KCl, 2 mM EGTA, 1 mg/ml BSA, and no cysteine. The hyphae were suspended in 150 ml of extraction medium, cut in small pieces (1 cm^2) and then disrupted at high speed for 1×2 sec and at low speed for 2×3 sec using a MultiMoulinex mixer (Moulinex, France). The suspension of disrupted hyphae was then filtered through two layers of nylon cloth (clearance 150 μm). The cloth was washed with 50 ml of extraction medium. After low-speed centrifugation (700 g for 15 min), the mitochondria were collected at 10,000 g for 20 min. The pellet was suspended in 250 μl of extraction medium, aliquoted (± 30 μl) and kept frozen at -80°C.
RC enzyme activities were spectrophotometrically measured using a pseudo-double-wavelength spectrophotometer (Cary 60, Agilent). Malonate-sensitive succinate quinone dichlorophenolindophenol (DCPIP) reductase (SQDR), as an indicator of the activity of the isolated SDH enzyme (isolated CII), and glycerol-3-phosphate quinone DCPIP reductase (GQDR), as a measure of the activity of the isolated glycerol-3-phosphate dehydrogenase (G3PDH), were assayed as previously described. […] With this aim, we measured the malonate-sensitive succinate cytochrome c reductase (SDH+CIII), glycerol-3-phosphate cytochrome c reductase (G3PDH+CIII) and antimycin-sensitive quinol cytochrome c reductase (CIII) as previously described.
The effects of eight different SDHIs (up to 500 μM; S2 Fig) were determined on four different biological materials. Because IC50 are known to be affected by the actual absolute activity of the tested enzyme, these IC50 were quantified using similar levels of SDH enzyme activity during the assay. IC50 values were determined using the AAT Bioquest IC50 calculator tool (https://www.aatbio.com/tools/ic50-calculator).

Row | Structure (SMILES) | Blood concentration corresponding to the ADI [1] [nM] | IC50 [2] [µM] | Blood concentration corresponding to the ADI ([1]; average adult 60 kg, blood volume 5 l)
1 | Cn1cc(C(=O)Nc2ccc(F)cc2-c2ccc(Cl)c(Cl)c2)c(C(F)F)n1 [Bixafen, bixafen] | 580 | 22.5 | –
2 | O=C(Nc1ccccc1-c1ccc(Cl)cc1)c1cccnc1Cl [Boscalid, boscalid] | – | – | approximately 1.40 μM
3 | CC(C)C1C2CCC1c1c(NC(=O)c3cn(C)nc3C(F)F)cccc12 (stereo not shown) [Isopyrazam, isopyrazam] | – | 27.9 | –
4 | Cn1cc(C(=O)Nc2ccccc2-c2cc(F)c(F)c(F)c2)c(C(F)F)n1 [Fluxapyroxad, fluxapyroxad] | 580 | 60 | –
5 | Cc1nn(C)c(F)c1C(=O)Nc1ccccc1C(C)CC(C)C (stereo not shown) [Penflufen, penflufen] | – | 80 | –
